Compound: Nc1nc2c(ncn2[C@@H]2O[C@H](COP(=O)(O)OP(=O)(O)OP(=O)(O)O)[C@@H](O)[C@H]2O)c(=O)[nH]1 [guanosine triphosphate]
Assay: pEC50 of GTP-induced change in protein thermal stability (2D-TPP)
Procedure: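 2D thermal proteome profiling in Jurkat crude lysate. Lysate was treated 10 min at room temperature with Na-GTP (0, 0.001, 0.01, 0.1, 0.5 mM), heated to 12 temperatures (42-63.9 °C) for 3 min, and soluble protein was quantified by TMT10 LC-MS/MS. pEC50 is the median over replicates of dose-response fits (FDR-controlled hits).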

Chain of UniProt Q9NVE7 (Q9NVE7 whole entry): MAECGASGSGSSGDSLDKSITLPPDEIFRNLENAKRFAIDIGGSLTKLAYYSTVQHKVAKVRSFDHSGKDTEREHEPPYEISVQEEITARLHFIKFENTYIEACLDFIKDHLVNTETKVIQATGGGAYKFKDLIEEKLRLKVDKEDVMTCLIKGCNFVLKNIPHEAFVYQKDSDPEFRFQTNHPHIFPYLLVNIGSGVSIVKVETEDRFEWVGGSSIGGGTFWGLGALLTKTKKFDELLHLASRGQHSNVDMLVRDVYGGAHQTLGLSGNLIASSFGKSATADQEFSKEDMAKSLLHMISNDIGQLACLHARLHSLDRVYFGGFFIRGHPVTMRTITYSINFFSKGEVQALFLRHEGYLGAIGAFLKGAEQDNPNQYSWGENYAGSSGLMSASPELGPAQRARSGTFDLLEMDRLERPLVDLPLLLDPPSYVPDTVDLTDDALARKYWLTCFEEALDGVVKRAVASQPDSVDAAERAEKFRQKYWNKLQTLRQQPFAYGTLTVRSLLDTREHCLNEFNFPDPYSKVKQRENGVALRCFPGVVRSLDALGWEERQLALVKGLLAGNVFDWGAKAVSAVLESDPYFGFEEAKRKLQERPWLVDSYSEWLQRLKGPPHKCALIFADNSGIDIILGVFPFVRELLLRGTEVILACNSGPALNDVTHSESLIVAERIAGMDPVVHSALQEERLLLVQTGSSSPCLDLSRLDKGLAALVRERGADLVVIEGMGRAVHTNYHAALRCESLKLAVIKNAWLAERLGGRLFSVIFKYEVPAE
Chain of UniProt O14772 (O14772 whole entry): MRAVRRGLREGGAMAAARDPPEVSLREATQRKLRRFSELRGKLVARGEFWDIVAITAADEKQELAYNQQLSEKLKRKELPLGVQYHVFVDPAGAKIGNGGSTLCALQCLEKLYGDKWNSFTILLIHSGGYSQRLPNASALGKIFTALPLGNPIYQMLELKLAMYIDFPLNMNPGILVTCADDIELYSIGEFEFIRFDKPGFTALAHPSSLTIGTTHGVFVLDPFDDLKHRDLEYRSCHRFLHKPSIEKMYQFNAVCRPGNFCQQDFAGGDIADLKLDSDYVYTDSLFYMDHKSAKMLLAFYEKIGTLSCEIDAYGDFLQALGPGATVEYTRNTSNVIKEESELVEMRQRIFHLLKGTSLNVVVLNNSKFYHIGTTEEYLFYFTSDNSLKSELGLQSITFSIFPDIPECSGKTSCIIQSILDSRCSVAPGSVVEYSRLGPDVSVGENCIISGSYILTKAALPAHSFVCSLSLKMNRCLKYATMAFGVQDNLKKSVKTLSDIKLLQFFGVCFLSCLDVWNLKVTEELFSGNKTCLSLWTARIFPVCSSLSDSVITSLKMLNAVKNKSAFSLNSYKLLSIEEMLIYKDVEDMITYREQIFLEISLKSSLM
Chain of UniProt Q9Y673 (Q9Y673 whole entry): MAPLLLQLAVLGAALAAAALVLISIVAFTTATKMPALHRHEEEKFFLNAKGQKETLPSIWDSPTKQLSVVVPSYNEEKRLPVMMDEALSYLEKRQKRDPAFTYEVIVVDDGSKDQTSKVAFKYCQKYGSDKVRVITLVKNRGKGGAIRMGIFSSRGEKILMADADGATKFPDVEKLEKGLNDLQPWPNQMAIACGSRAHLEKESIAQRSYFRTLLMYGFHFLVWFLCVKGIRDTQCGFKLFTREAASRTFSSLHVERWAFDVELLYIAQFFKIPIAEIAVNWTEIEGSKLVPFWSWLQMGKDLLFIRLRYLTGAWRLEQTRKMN
Chain of UniProt A3KMH1 (A3KMH1 whole entry): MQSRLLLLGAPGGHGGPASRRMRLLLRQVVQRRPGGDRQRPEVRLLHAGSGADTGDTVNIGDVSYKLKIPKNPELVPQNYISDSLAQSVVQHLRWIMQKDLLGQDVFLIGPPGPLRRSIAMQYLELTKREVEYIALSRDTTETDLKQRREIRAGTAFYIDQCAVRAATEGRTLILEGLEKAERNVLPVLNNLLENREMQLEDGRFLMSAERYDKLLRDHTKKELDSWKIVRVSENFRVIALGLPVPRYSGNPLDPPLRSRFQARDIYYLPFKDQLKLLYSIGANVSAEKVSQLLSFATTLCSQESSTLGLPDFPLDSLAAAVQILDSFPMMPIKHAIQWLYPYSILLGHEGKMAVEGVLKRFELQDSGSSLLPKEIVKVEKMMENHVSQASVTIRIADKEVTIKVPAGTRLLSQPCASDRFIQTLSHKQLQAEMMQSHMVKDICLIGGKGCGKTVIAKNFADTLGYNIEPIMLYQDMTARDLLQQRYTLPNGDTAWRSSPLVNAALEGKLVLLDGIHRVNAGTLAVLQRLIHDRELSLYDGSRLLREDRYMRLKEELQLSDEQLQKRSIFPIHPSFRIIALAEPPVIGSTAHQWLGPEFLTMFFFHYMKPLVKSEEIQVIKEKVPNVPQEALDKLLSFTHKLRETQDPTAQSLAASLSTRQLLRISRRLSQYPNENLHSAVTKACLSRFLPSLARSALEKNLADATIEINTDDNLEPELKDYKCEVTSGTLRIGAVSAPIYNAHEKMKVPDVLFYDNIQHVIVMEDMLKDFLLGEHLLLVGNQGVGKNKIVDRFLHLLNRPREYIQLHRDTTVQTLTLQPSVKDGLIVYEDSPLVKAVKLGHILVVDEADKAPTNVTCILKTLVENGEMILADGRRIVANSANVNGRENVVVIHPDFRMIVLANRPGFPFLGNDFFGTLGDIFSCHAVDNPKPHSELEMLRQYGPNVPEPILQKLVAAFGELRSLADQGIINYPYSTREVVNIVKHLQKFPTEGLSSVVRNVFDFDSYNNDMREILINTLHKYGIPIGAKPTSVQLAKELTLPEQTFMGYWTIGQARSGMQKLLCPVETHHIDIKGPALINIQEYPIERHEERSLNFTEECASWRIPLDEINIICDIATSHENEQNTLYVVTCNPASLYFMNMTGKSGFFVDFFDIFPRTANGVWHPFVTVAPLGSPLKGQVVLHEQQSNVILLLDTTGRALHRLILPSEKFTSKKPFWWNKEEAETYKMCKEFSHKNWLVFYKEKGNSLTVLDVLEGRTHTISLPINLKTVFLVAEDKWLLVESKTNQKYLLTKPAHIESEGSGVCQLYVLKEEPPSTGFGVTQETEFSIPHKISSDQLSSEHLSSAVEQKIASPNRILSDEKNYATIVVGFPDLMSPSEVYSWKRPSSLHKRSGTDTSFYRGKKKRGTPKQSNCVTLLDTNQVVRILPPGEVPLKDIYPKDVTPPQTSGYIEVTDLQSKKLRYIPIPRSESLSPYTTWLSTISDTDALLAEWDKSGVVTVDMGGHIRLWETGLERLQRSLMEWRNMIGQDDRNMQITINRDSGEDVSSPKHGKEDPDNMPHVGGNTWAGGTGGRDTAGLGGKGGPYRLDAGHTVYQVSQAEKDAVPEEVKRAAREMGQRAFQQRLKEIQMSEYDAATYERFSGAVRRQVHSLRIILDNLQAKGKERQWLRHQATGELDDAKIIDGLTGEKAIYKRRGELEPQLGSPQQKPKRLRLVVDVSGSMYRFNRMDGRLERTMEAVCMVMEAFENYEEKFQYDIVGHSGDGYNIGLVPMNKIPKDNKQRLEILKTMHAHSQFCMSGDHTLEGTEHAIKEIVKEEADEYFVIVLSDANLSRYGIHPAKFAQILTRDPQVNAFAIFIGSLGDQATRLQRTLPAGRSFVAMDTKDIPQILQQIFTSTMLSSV
Chain of UniProt P84095 (P84095 whole entry): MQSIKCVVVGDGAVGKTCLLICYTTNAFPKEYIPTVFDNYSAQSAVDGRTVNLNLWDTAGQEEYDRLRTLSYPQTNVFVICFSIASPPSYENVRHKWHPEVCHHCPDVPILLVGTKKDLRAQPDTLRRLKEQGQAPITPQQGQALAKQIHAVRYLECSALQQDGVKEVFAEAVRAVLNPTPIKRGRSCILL
Chain of UniProt Q9HBU6 (Q9HBU6 whole entry): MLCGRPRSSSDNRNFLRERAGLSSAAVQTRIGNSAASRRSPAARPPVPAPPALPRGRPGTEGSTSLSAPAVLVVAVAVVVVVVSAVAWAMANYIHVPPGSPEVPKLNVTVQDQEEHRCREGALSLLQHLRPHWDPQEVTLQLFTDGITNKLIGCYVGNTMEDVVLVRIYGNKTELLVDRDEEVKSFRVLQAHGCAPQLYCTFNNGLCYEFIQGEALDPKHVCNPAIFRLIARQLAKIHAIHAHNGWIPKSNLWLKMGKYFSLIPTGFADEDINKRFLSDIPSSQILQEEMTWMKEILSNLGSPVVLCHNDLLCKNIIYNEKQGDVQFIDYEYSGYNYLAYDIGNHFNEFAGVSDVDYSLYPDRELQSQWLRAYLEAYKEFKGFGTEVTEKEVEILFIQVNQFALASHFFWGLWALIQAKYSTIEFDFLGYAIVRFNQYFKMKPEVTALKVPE
Chain of UniProt P10114 (P10114 whole entry): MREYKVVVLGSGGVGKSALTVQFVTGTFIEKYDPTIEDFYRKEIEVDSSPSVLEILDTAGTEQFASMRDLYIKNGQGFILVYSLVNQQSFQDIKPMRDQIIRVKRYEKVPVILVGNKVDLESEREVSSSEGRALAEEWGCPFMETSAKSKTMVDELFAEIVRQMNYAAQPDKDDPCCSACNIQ
Chain of UniProt P01111 (P01111 whole entry): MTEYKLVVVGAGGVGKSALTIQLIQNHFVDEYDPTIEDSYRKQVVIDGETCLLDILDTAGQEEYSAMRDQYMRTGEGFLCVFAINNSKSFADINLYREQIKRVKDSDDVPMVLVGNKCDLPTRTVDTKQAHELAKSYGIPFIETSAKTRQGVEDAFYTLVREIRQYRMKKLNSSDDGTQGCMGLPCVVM
Chain of UniProt Q9NZ01 (Q9NZ01 whole entry): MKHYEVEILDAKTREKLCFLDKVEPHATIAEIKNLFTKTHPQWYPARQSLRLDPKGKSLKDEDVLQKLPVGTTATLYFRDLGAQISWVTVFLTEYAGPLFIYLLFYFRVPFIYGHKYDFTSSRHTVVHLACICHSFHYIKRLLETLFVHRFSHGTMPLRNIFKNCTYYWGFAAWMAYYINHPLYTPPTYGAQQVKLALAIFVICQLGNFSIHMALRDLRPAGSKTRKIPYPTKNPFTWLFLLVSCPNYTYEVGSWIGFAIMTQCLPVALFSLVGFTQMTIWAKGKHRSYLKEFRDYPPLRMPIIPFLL

pEC50 | Target
3.9 | UniProt P51149 (effect direction: stabilized)
3.49 | H2AFX (effect direction: stabilized) (UniProt P16104)
4.47 | RAP2A (effect direction: stabilized) (UniProt P10114)
3.66 | UniProt Q9NZ01 (effect direction: stabilized)
3.94 | UniProt P84103 (effect direction: stabilized)
< 3.3 | CPSF6 (effect direction: stabilized) (UniProt Q16630)
4.01 | NRAS (effect direction: stabilized) (UniProt P01111)
4.16 | UniProt O75582 (effect direction: stabilized)
3.88 | RAB1B (effect direction: stabilized) (UniProt Q9H0U4)
3.78 | POFUT1 (effect direction: stabilized) (UniProt Q9H488)
3.96 | MFN1 (effect direction: stabilized) (UniProt Q8IWA4)
4.62 | CPT1A (effect direction: stabilized) (UniProt P50416)
4.33 | RALA (effect direction: stabilized) (UniProt P11233)

The remaining lines, values behind:

Target | pEC50
UniProt A3KMH1 (effect direction: stabilized) | 3.98
SAFB (effect direction: destabilized) (UniProt Q15424) | 4.81
COASY (effect direction: stabilized) (UniProt Q13057) | 4.03
RAC2 (effect direction: stabilized) (UniProt P15153) | 3.98
ARL6 (effect direction: stabilized) (UniProt Q9H0F7) | 4.1
GNL2 (effect direction: stabilized) (UniProt Q13823) | 4.2
PANK4 (effect direction: stabilized) (UniProt Q9NVE7) | 3.55
UniProt P84095 (effect direction: stabilized) | 3.83
UniProt P84085 (effect direction: stabilized) | 4.13
LSG1 (effect direction: stabilized) (UniProt Q9H089) | 3.88
UniProt P61020 (effect direction: stabilized) | 4.67
FPGT (effect direction: stabilized) (UniProt O14772) | 3.91
RAB3D (effect direction: stabilized) (UniProt O95716) | 3.85
UniProt P62834 (effect direction: stabilized) | 4.38
RAB18 (effect direction: stabilized) (UniProt Q9NP72) | 3.65
GDI2 (effect direction: stabilized) (UniProt P50395) | 3.74
H2AFY (effect direction: stabilized) (UniProt O75367) | 3.67
UniProt Q13243 (effect direction: stabilized) | 3.6
GNAQ (effect direction: stabilized) (UniProt P50148) | 3.6
ETNK1 (effect direction: stabilized) (UniProt Q9HBU6) | 4.21
TUBE1 (effect direction: stabilized) (UniProt Q9UJT0) | 4.31
NUBPL (effect direction: stabilized) (UniProt Q8TB37) | 3.93
ALG5 (effect direction: stabilized) (UniProt Q9Y673) | 4.68
ALG1 (effect direction: stabilized) (UniProt Q9BT22) | 3.56
UQCRC2 (effect direction: stabilized) (UniProt P22695) | 4.3
GSPT2 (effect direction: stabilized) (UniProt Q8IYD1) | 4.27
RALB (effect direction: stabilized) (UniProt P11234) | 4.14

Source: the supplement of paper PMC6411743
